Measurements as given in patent US20110213000A1, “N-(2-THIAZOLYL)-AMIDE DERIVATIVES FOR THE TREATMENT OF OBESITY, DIABETES AND CARDIOVASCULAR DISEASES” (ZELTIA, S.A., priority 2007, published 2011).

System: adiponectin promoter
Assay: Luciferase reporter screening of promoter transcriptional activity in stable C2C12 cell lines
Type: cell-based, mouse
Conditions: for activation ratio: C2C12 stable line, luciferase, vs vehicle; for concentration at which the greatest transactivation was achieved: dose-response curve of the commercial activator on the target promoter
Description: The following protocol has been followed for the purpose of analyzing the potential therapeutic activity against obesity, type 2 diabetes mellitus and atherosclerosis (ODA metabolic diseases) of the compounds 1-5: • generating cell lines which have stably integrated human promoters of key genes in the development of ODA diseases; • amplifying the human promoter sequence of the target genes starting from commercial human genomic DNA; • cloning the promoter into a suitable vector which allows knowing the transcriptional activity of the promoter sequence, using the luciferase gene as a reporter gene; • generating stable cell lines for each of the promoters cloned into the reporter vectors; • carrying out the screening test with the compounds of the invention on the stable cell lines; • suitably validating the effect obtained with a certain compound which can modify the transcriptional activity of the promoter.
The selected cell line is C2C12, corresponding to myoblasts from mouse muscle tissue.
The luciferase activity is measured according to the following protocol: • a) 50000 and […] cells/well (and in duplicate) are seeded in a P24 plate. • b) After approximately 24 hours, the medium is removed from the cells and each well is washed with PBS 1× (because DMEM interferes in the measurement of the activity of the reporter gene) • c) 100 μl of luciferase developing reagent are added in each cell (Bright-Glo™ Luciferase Assay system—Promega). This reagent carries the reporter gene substrate and luminescence is generated as the product of the enzymatic reaction. The cells which have acquired the reporter gene, and therefore the target promoter, will be luminescent upon being in the presence of said substrate. To record the measurement of luciferase activity, the plate is shaken for 30 seconds right after adding the developing reagent and after 2 minutes, the volume is collected and transferred to a 96-well plate (P96), which can be read in an illuminometer. • d) The suitable luminescence program is selected, such that the reading lasts 5 seconds per well, and the arbitrary luminescence units are recorded for each obtained clone or, in other words, for each stable cell line.
Carrying out the screening test: The clones used in the screening are: C2C12 Adipo (adiponectin promoter), C2C12 UCP3 (UCP3 promoter), C2C12 AdR1 (adiponectin receptor 1 promoter) and C2C12 Nmu (neuromedin promoter).
Before any screening experiment, the suitable number of cells for carrying out such experiments must first be provided. To that end, 2 T75 are usually seeded (with approximately 1×10^6 cells in each bottle), such that after four days, the cells have reached confluence and are ready for the screening protocol detailed below to be carried out. • 1. Day 1: 30000 cells per well are seeded in white P96 plates; these plates allow amplifying the luminescence signal and improving the reading. The cells are grown in 100 μl of hygromycin-free medium. • 2. Day 2: 24 hours after the seeding, the cells are stimulated with compounds 1-5. […]
[drawing 16] • ? In the indicated positions, the baseline transcriptional activity of the promoters to be studied is recorded in the presence of the medium in which compounds 1-5 (vehicle) are dissolved. • ? In the indicated positions, the transcriptional activity of the promoters to be studied is recorded in the presence of a known commercial activator of the target promoter. […]

[1] = 1 μM, 48 hours after stimulation
[2] = 5 μM, 48 hours after stimulation
[3] = 10 μM, 48 hours after stimulation
[4] = 20 μM, 48 hours after stimulation
[5] = 0.5 μM, 48 hours after stimulation
[6] = 25 μM, 48 hours after stimulation

`O=c1c(-c2ccc(O)cc2)coc2cc(O)ccc12` [Daidzein] was tested, and the activation ratio [1] was 1.68, the activation ratio [2] was 3.03 and the activation ratio [3] was 3.76. The activation ratio [4] was 4.04, the activation ratio (50 μM, dose-response curve) was 4.05 and the activation ratio (100 μM, dose-response curve) was 3.71. For the same compound, the “concentration at which the greatest transactivation was achieved” value (“concentration” below) was 20 µM.
`O=C(Nc1nccs1)c1ccccn1` [Compound 3, pyridin-2-carboxylic acid thiazol-2-yl-amide] showed an activation ratio [5] of 1.40, an activation ratio [1] of 1.71 and an activation ratio [2] of 3.23. For the same compound, the activation ratio [3] was 3.82, the activation ratio [6] was 3.73 and the activation ratio (50 μM, dose-response curve) was 3.20. The activation ratio (100 μM, dose-response curve) was 1.61 and the activation ratio (200 μM, dose-response curve) was 0.75.
With `O=C(Nc1nccs1)c1n[nH]c2ccccc12` [Compound 1, thiazol-2-ylamide compound of 1H-indazole-3-carboxylic acid] the activation ratio (0.1 μM, 48 hours after stimulation) was 1.28, the activation ratio [5] was 3.66 and the activation ratio [1] was 4.59. It also gave an activation ratio [3] of 5.52, an activation ratio [6] of 3.58 and an activation ratio (50 μM, dose-response curve) of 2.29. The activation ratio (100 μM, dose-response curve) was 0.71 and the activation ratio (400 μM, dose-response curve) was 0.12.
For `O=c1c(-c2ccc(O)cc2)coc2cc(O)cc(O)c12` [Genistein], the activation ratio [1] was 1.47, the activation ratio [2] was 2.25 and the activation ratio [3] was 3.59. It also gave an activation ratio [4] of 3.05, an activation ratio (50 μM, dose-response curve) of 1.97 and an activation ratio (100 μM, dose-response curve) of 1.75. For the same compound, the activation ratio (200 μM, dose-response curve) was 1.59 and the “concentration” value was 20 µM.
For `CN(CCOc1ccc(CC2SC(=O)NC2=O)cc1)c1ccccn1` (centres unmarked) [Rosiglitazone], the “concentration” value was 20 µM.
